Drawing on patent US9220725B2, “Cationic latex as a carrier for bioactive ingredients and methods for making and using the same” (priority 2006, dated 2015), this text covers Solubility, antifungal performance and degradation during polymerization for six molecules.

Data set [1] can be described thus: Solubility of additives used in polymerization. The class given is physicochemical.
For data set [2], the system named is fungal species. Kind of data set: ASTM D-3273 on coated paper, increased coating thickness, spores in humidity chamber, 28 days. It counts as cell-based. The protocol:
A second round of testing was performed using an increased coating thickness to ensure full coverage of the paper surface. The second round of testing of the coated paper samples were tested according to ASTM D-3273. In this study, the duration remained the same (28 days), but the fungal species were not directly inoculated on the surface. Rather, they were maintained in the humidity chamber as spores that would then land on the surface of the coated paper as in a real world example. The results of this study are outlined in FIG. 3.

Data set [3] can be described thus: Stability of additive during polymerization. It counts as physicochemical. Particulars: incorporated in relatively high amounts. From the text: Ideally, the materials are substantially unreactive during the polymerization conditions, so they are not degraded during polymerization. In some embodiments, low levels of additive might be observed, whether due to degradation, or difficulty in extraction from the polymer latex. In any case, retention of the additive in the latex leads to retention of antifungal properties in the finished paper.
The polymerization temperature was investigated as a potential contributor to degradation, and it was kept as low as was feasible (typically <70° C.). The samples were stripped at the end of polymerization to the desired solids content.

For data set [4], the system named is fungal species. Kind of data set: 30-III fungal test on 1"X1" chip of dried latex, growth observed after 7 days. It counts as cell-based. Particulars: 7 day incubation. The protocol:
The results observed in the G-21 study were also duplicated in a shorter (7 day incubation) fungal study (referred to herein as 30-III).
The 30-III fungal test was based on making a 1″X1″ chip of the dried latex and inoculating the fungal species directly on to the sample and then observing its growth after 7 days. This is not as rigorous a test as the G-21 test, but gave a quick indication of the efficacy of the additives.

Like-named read-outs stand apart in the source and are kept apart here.

Turning to `Cc1ccc(S(=O)(=O)C(I)I)cc1` [Amical AF, Diiodomethyltoluyl sulfone], the Solubility entry in data set [1] (in monomer where given) is given as “Limited”. Besides, the antifungal performance result in the data set with fungal species [2] was “effective”; in the data set with fungal species [4], “some fungal inhibition”. Further, the degradation during polymerization result in data set [3] was “degraded”.
As for Zinc pyrithione [Microban Z01], the Solubility entry in data set [1] (in monomer where given) is given as “Insoluble in”. The antifungal performance result was “did not perform well” in the data set on fungal species [2] and “performed well” in the data set on fungal species [4].
Regarding `CCCC1COC(Cn2cncn2)(c2ccc(Cl)cc2Cl)O1` (centres unmarked) [Microban PZ, Propiconazole], the Solubility result in data set [1] is on record as “Fairly soluble”.
In the case of `[Na+].[O-]c1ccccc1-c1ccccc1` [Microban P2, Sodium orthophenyl phenate], the Solubility entry in data set [1] (in water) is on record as “soluble”.
As to `CC(C)(C)C(O)(CCc1ccc(Cl)cc1)Cn1cncn1` (centres unmarked) [Microban TZ, Tebuconazole], in data set [1], the Solubility entry is recorded as “Fairly soluble”.
`Oc1cc(Cl)ccc1Oc1ccc(Cl)cc1Cl` [Triclosan, Chlorodiphenyl ether, reference compound]: in data set [1] (in monomer where given), the Solubility entry was “Solid. Fairly”.
